The record followed here is patent US11000033B2, “Ketone or oxime compound, and herbicide” (NISSAN CHEMICAL CORPORATION, priority 2014, dated 2021).

Holding throughout (format): in vivo
Series [1] relates to Echinochloa oryzacola Vasing. In words: Test Example 2: herbicidal activity, application during weed generation in submerged conditions (symbol A). To be noted: Table 23; application herbicide amount 320 g/ha; grade 0-5 by criteria of Test Example 1. An outline of the steps: (§1)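 Scoring of herbicidal effect took place 3 weeks after treatment, using the criteria of the earlier test. Treatment was water-surface application of diluted emulsifiable compound at a set dose. Plants were at one- to two-leaf stage in submerged alluvial soil (4 cm depth), greenhouse 25-30° C.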

Another series deals with Scirpus juncoides. Briefly: Test Example 2: herbicidal activity, application during weed generation in submerged conditions (symbol B). To be noted: Table 23; application herbicide amount 320 g/ha; grade 0-5 by criteria of Test Example 1. An outline of the steps: as §1
Series [2] has as its system Echinochloa crus-galli var. crus-galli. Briefly: Test Example 3: herbicidal effect by foliage application, Wagner pot (symbol H). To be noted: application herbicide amount 320 g/ha. The procedure, abridged: (§2)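 Foliar spray of a water-diluted emulsion at a predetermined herbicide amount, applied to 14-day-old plants. Seedlings were raised in flooded alluvial soil (0.1–0.5 cm water) at 25–30 °C in a greenhouse. Injury was rated after 3 weeks against fixed criteria.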

Series [3] has as its system Digitaria ciliaris. In words: Test Example 4: herbicidal effect by soil treatment (symbol F). The following applies: application herbicide amount 320 g/ha. An outline of the steps:
(§3)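 Seeds were sown in sterilized diluvial soil, covered with about 1.5 cm of soil, and the soil surface was sprayed with a water-diluted emulsion of the compound at a predetermined rate. Plants grew in a greenhouse at 25° C. to 30° C.; effects were scored visually 3 weeks after application.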

Series [4] deals with Echinochloa crus-galli var. crus-galli. In words: Test Example 4: herbicidal effect by soil treatment (symbol H). To be noted: application herbicide amount 320 g/ha. The procedure, abridged: as §3
For a further series, the system named is Lolium multiflorum Lam. In words: Test Example 4: herbicidal effect by soil treatment (symbol K). The following applies: application herbicide amount 320 g/ha. The procedure, abridged: as §3
The test system of a further series is Apera spica-venti. Briefly: Test Example 4: herbicidal effect by soil treatment (symbol L). The following applies: application herbicide amount 320 g/ha. An outline of the steps: as §3
For a further series, the system named is Abutilon theophrasti. Briefly: Test Example 4: herbicidal effect by soil treatment (symbol M). The following applies: application herbicide amount 320 g/ha. An outline of the steps:
as §3

Series [5] deals with Amaranthus retroflexus. Briefly: Test Example 4: herbicidal effect by soil treatment (symbol N). To be noted: application herbicide amount 320 g/ha. The procedure, abridged: as §3
The subject of another series is rapeseed. Briefly: Test Example 4: effect on crop by soil treatment (symbol g). To be noted: application herbicide amount 320 g/ha. The procedure, abridged:
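Soil-treatment setup: crop and weed seeds were spot-sown into sterilized diluvial soil, then buried beneath approximately 1.5 cm of it, and the boxes were housed in a 25–30° C. greenhouse.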

Series [6] relates to Digitaria ciliaris. Briefly: Test Example 5: herbicidal effect by foliage application, plastic box (symbol F). To be noted: 320 g/ha, 3 weeks after application. An outline of the steps:
(§4)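 Herbicide, formulated as an emulsion and diluted in water, is sprayed onto the aerial parts of 14-day seedlings. These were grown at 25° C. to 30° C. in sterilized diluvial soil; effects are graded after 3 weeks.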

The next series concerns Avena fatua. Briefly: Test Example 5: herbicidal effect by foliage application, plastic box (symbol I). To be noted: 320 g/ha, 3 weeks after application. An outline of the steps:
as §4

Series [7] has as its system Amaranthus retroflexus. In words: Test Example 5: herbicidal effect by foliage application, plastic box (symbol N). The following applies: 320 g/ha, 3 weeks after application. An outline of the steps: as §4
Another series has as its system Chenopodium album. Briefly: Test Example 5: herbicidal effect by foliage application, plastic box (symbol O). To be noted: 320 g/ha, 3 weeks after application. The procedure, abridged:
as §4

For another series, the system named is Stellaria media. Briefly: Test Example 5: herbicidal effect by foliage application, plastic box (symbol P). The following applies: 320 g/ha, 3 weeks after application. The procedure, abridged:
as §4

Another series relates to Veronica persica. In words: Test Example 5: herbicidal effect by foliage application, plastic box (symbol R). To be noted: 320 g/ha, 3 weeks after application. The procedure, abridged:
as §4

In another series the test system is rice plant. In words: Test Example 5: effect on crop by foliage application, plastic box (symbol b). To be noted: 320 g/ha, 3 weeks after application. An outline of the steps:
(§5)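 Greenhouse test at 25° C. to 30° C. Seeds of crops and weeds were spot-sown in boxes of sterilized diluvial soil under roughly 1.5 cm soil cover, then grown for foliage treatment.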

The subject of a further series is wheat. In words: Test Example 5: effect on crop by foliage application, plastic box (symbol e). The following applies: 320 g/ha, 3 weeks after application. An outline of the steps:
as §5

Another series deals with beet. In words: Test Example 5: effect on crop by foliage application, plastic box (symbol f). To be noted: 320 g/ha, 3 weeks after application. The procedure, abridged: as §5
The subject of a further series is Leptochloa chinensis. Briefly: Test Example 3: herbicidal effect by foliage application, Wagner pot (symbol D). To be noted: application herbicide amount 320 g/ha. An outline of the steps:
as §2

For `CCC(=O)CC1CC(O)=C(c2c(C)cc(C)cc2C)C1=O` (stereo not drawn) [2-006], the “Herbicidal effect grade, A: Echinochloa oryzacola Vasing.” value in series [1] is reported as 5 (Herbicidal ratio of 90% or more (almost completely withered)). Further, the “Herbicidal effect grade, B: Scirpus juncoides” value (shortened to “Herbicidal effect grade, B”) in the series with Scirpus juncoides is 2 (Herbicidal ratio of 20% or higher and lower than 40%). In addition, in series [2], the “herbicidal effect on H (Echinochloa crus-galli var. crus-galli), grade 0-5” value (from here on “herbicidal effect on H”) is on record as 5 (Herbicidal ratio of 90% or more (almost completely withered)). For the same compound, the “F: Digitaria ciliaris, herbicidal effect grade” value (shortened to “F: Digitaria ciliaris”) was 5 (Herbicidal ratio of 90% or more (almost completely withered)) with Digitaria ciliaris [3]; 3 (Herbicidal ratio of 40% or higher and lower than 70%) in the series on Digitaria ciliaris [6]. Further, the “H: Echinochloa crus-galli var. crus-galli, herbicidal effect grade” value in series [4] was 5 (Herbicidal ratio of 90% or more (almost completely withered)). Also, the “K: Lolium multiflorum Lam., herbicidal effect grade” value in the series with Lolium multiflorum Lam. is given as 5 (Herbicidal ratio of 90% or more (almost completely withered)). In addition, the “L: Apera spica-venti, herbicidal effect grade” value (“L: Apera spica-venti” for short) in the series with Apera spica-venti is listed as 5 (Herbicidal ratio of 90% or more (almost completely withered)). Moreover, the “M: Abutilon theophrasti, herbicidal effect grade” value (shortened to “M: Abutilon theophrasti”) in the series on Abutilon theophrasti was 4 (Herbicidal ratio of 70% or higher and lower than 90%). Besides, the “N: Amaranthus retroflexus, herbicidal effect grade” value (shortened to “N: Amaranthus retroflexus”) with Amaranthus retroflexus [5] and with Amaranthus retroflexus [7] was 0 (Herbicidal ratio of 5% or lower (almost no effect)) in each case. For the same compound, in the series on rapeseed, the “g: rapeseed, effect on crop grade” value is 4 (Herbicidal ratio of 70% or higher and lower than 90%). Moreover, in the series on Avena fatua, the “I: Avena fatua, herbicidal effect grade” value was 3 (Herbicidal ratio of 40% or higher and lower than 70%). Besides, in the series with Chenopodium album, the “O: Chenopodium album, herbicidal effect grade” value (“O: Chenopodium album” for short) is listed as 0 (Herbicidal ratio of 5% or lower (almost no effect)). The “P: Stellaria media, herbicidal effect grade” value in the series on Stellaria media is on record as 0 (Herbicidal ratio of 5% or lower (almost no effect)). Further, in the series on Veronica persica, the “R: Veronica persica, herbicidal effect grade” value (shortened to “R: Veronica persica”) is reported as 0 (Herbicidal ratio of 5% or lower (almost no effect)). In addition, the “b: directly sowed rice plant, effect on crop grade” value (shortened to “b: directly sowed rice plant”) in the series on rice plant is 4 (Herbicidal ratio of 70% or higher and lower than 90%). For the same compound, the “e: wheat, effect on crop grade” value in the series on wheat was 0 (Herbicidal ratio of 5% or lower (almost no effect)). In the series on beet, the “f: beet, effect on crop grade” value is given as 0 (Herbicidal ratio of 5% or lower (almost no effect)).

For `CCc1cc(Br)cc(C)c1C1=C(O)CC(CC(C)=NOC)C1=O` (stereo not drawn) [6-001], the “Herbicidal effect grade, A: Echinochloa oryzacola Vasing.” value in series [1] is 4 (Herbicidal ratio of 70% or higher and lower than 90%). Also, the “Herbicidal effect grade, B” value with Scirpus juncoides is 0 (Herbicidal ratio of 5% or lower (almost no effect)). In series [2], the “herbicidal effect on H” value was 5 (Herbicidal ratio of 90% or more (almost completely withered)). In addition, the “herbicidal effect on D (Leptochloa chinensis), grade 0-5” value in the series on Leptochloa chinensis is given as 5 (Herbicidal ratio of 90% or more (almost completely withered)). Besides, the “F: Digitaria ciliaris” value in the series on Digitaria ciliaris [3] and with Digitaria ciliaris [6] was 5 (Herbicidal ratio of 90% or more (almost completely withered)) in each case. Further, in series [4], the “H: Echinochloa crus-galli var. crus-galli, herbicidal effect grade” value was 5 (Herbicidal ratio of 90% or more (almost completely withered)). For the same compound, in the series on Lolium multiflorum Lam., the “K: Lolium multiflorum Lam., herbicidal effect grade” value is 5 (Herbicidal ratio of 90% or more (almost completely withered)). Moreover, in the series on Apera spica-venti, the “L: Apera spica-venti” value is on record as 5 (Herbicidal ratio of 90% or more (almost completely withered)). Also, the “M: Abutilon theophrasti” value with Abutilon theophrasti is given as 0 (Herbicidal ratio of 5% or lower (almost no effect)). The “N: Amaranthus retroflexus” value in the series on Amaranthus retroflexus [5] and with Amaranthus retroflexus [7] was 0 (Herbicidal ratio of 5% or lower (almost no effect)) in each case. Further, the “g: rapeseed, effect on crop grade” value with rapeseed was 2 (Herbicidal ratio of 20% or higher and lower than 40%). The “I: Avena fatua, herbicidal effect grade” value in the series with Avena fatua is recorded as 5 (Herbicidal ratio of 90% or more (almost completely withered)). Besides, in the series on Chenopodium album, the “O: Chenopodium album” value is listed as 0 (Herbicidal ratio of 5% or lower (almost no effect)). Moreover, the “R: Veronica persica” value in the series with Veronica persica is 0 (Herbicidal ratio of 5% or lower (almost no effect)). In addition, in the series on rice plant, the “b: directly sowed rice plant” value was 5 (Herbicidal ratio of 90% or more (almost completely withered)). In addition, in the series on wheat, the “e: wheat, effect on crop grade” value is reported as 5 (Herbicidal ratio of 90% or more (almost completely withered)). For the same compound, the “f: beet, effect on crop grade” value with beet was 0 (Herbicidal ratio of 5% or lower (almost no effect)).

As for `CCc1cc(Br)cc(C)c1C1=C(O)CC(C(C(=O)OC)C(C)=NOC)C1=O` (stereo not drawn) [6-002], the “Herbicidal effect grade, A: Echinochloa oryzacola Vasing.” value in series [1] is on record as 0 (Herbicidal ratio of 5% or lower (almost no effect)). In addition, the “Herbicidal effect grade, B” value in the series with Scirpus juncoides is on record as 0 (Herbicidal ratio of 5% or lower (almost no effect)). Further, the “herbicidal effect on H” value in [2] was 4 (Herbicidal ratio of 70% or higher and lower than 90%). In addition, the “herbicidal effect on D (Leptochloa chinensis), grade 0-5” value with Leptochloa chinensis was 4 (Herbicidal ratio of 70% or higher and lower than 90%). Besides, the “F: Digitaria ciliaris” value is 2 (Herbicidal ratio of 20% or higher and lower than 40%) in the series with Digitaria ciliaris [3]; 5 (Herbicidal ratio of 90% or more (almost completely withered)) in the series on Digitaria ciliaris [6]. The “H: Echinochloa crus-galli var. crus-galli, herbicidal effect grade” value in [4] is 2 (Herbicidal ratio of 20% or higher and lower than 40%). The “K: Lolium multiflorum Lam., herbicidal effect grade” value in the series on Lolium multiflorum Lam. is 5 (Herbicidal ratio of 90% or more (almost completely withered)). Besides, in the series on Apera spica-venti, the “L: Apera spica-venti” value was 4 (Herbicidal ratio of 70% or higher and lower than 90%). Further, the “M: Abutilon theophrasti” value with Abutilon theophrasti is reported as 0 (Herbicidal ratio of 5% or lower (almost no effect)). Moreover, the “N: Amaranthus retroflexus” value with Amaranthus retroflexus [5] and in the series with Amaranthus retroflexus [7] was 0 (Herbicidal ratio of 5% or lower (almost no effect)) throughout. For the same compound, the “g: rapeseed, effect on crop grade” value in the series on rapeseed is 0 (Herbicidal ratio of 5% or lower (almost no effect)). Also, the “I: Avena fatua, herbicidal effect grade” value in the series with Avena fatua is 5 (Herbicidal ratio of 90% or more (almost completely withered)). Moreover, the “O: Chenopodium album” value in the series on Chenopodium album is on record as 0 (Herbicidal ratio of 5% or lower (almost no effect)). For the same compound, the “R: Veronica persica” value in the series on Veronica persica is 0 (Herbicidal ratio of 5% or lower (almost no effect)). Also, the “b: directly sowed rice plant” value in the series on rice plant is listed as 5 (Herbicidal ratio of 90% or more (almost completely withered)). In addition, in the series with wheat, the “e: wheat, effect on crop grade” value was 0 (Herbicidal ratio of 5% or lower (almost no effect)). In addition, in the series with beet, the “f: beet, effect on crop grade” value is 0 (Herbicidal ratio of 5% or lower (almost no effect)).
